Converted amounts (≈) assume the structure as drawn. The source made the active and inactive calls. The calls are words filed in the database; no cut-off is given here.
Experiments:
Candida albicans = assay: Antimicrobial activity against amphotericin-resistant Candida albicans; format: functional, organism-based
Staphylococcus aureus = assay: Antimicrobial activity against methicillin-resistant Staphylococcus aureus; format: functional, organism-based
Enterococcus faecium = assay: Antimicrobial activity against vancomycin-resistant Enterococcus faecium; format: functional, organism-based
RAW264.7 [1] = assay: Antiinflammatory activity in mouse RAW264.7 cells assessed as inhibition of LPS-stimulated nitric oxide production at 3 to 10 uM treated 30 mins prior to LPS challenge measured after 24 hrs by Griess reagent method; format: functional; design: scale not given: the % may be the effect or the level left
RAW264.7 [2] = assay: Cytotoxicity against mouse RAW264.7 cells at 3 to 10 uM by sulforhodamine B assay; format: cell-based; settings: raw264.7, 10 µM
RAW264.7 [3] = assay: Antiinflammatory activity in mouse RAW264.7 cells assessed as inhibition of LPS-stimulated PGE2 production at 3 to 10 uM treated 30 mins prior to LPS challenge measured after 24 hrs by ELISA; format: functional; design: scale not given: the % may be the effect or the level left
[4] = Inhibition of TNF-induced NF-kappaB activation transfected in HEK293 cells by luciferase reporter gene assay; format: cell-based
RAW264.7 [5] = assay: Antiinflammatory activity in mouse RAW264.7 cells assessed as inhibition of LPS-stimulated nitric oxide production treated 30 mins prior to LPS challenge measured after 24 hrs by Griess reagent method; format: functional, cell-based
HCT-116 = assay: Cytotoxicity against human HCT116 cells; format: functional, cell-based

SMILES | Activity (Candida albicans) | Activity (Staphylococcus aureus) | Activity (Enterococcus faecium) | Activity (RAW264.7 [1]) [%] | Activity (RAW264.7 [2]) | Activity (RAW264.7 [3]) [%] | IC50 [4] [µM] | Activity (RAW264.7 [5]) | IC50 (HCT-116) [mg/L]
CCCCCC[C@H](C)[C@@H]1CC(=O)NCC(=O)N[C@@H](C(C)C)C(=O)N[C@@H](CC(C)C)C(=O)N[C@@H](C)C(=O)N[C@@H](CCSC)C(=O)O1 | inactive | inactive | inactive | – | – | – | – | – | –
CCCCCC[C@@H](C)[C@H](O)CC(=O)NCC(=O)N[C@H](C(=O)C[C@@H](CC(C)C)C(=O)N[C@@H](C)C(=O)N[C@@H](Cc1ccccc1)C(=O)OC)C(C)C | inactive | inactive | inactive | – | – | – | – | – | –
CCCC[C@H](C)[C@@H]1CC(=O)NCC(=O)N[C@@H](C(C)C)C(=O)N[C@@H](CC(C)C)C(=O)N[C@@H](C)C(=O)N[C@@H](Cc2ccccc2)C(=O)O1 [ARENAMIDE B] | inactive | inactive | inactive | 35 | Non-toxic | 50 | 1.7 | Dose-dependent effect | 19.2 (≈ 29.8 µM)
CCCCCC[C@H](C)[C@@H]1CC(=O)NCC(=O)N[C@@H](C(C)C)C(=O)N[C@@H](CC(C)C)C(=O)N[C@@H](C)C(=O)N[C@@H](Cc2ccccc2)C(=O)O1 [ARENAMIDE A] | inactive | inactive | inactive | 35 | Non-toxic | 50 | 3.7 | Dose-dependent effect | 13.2 (≈ 19.6 µM)
